Earlier results, collected in US7041676B2, “Compounds, compositions, and methods” (Cytokinetics, Inc., priority 2002, dated 2006).

Test system: A549 cells
Settings: data provided by National Cancer Institute, Developmental Therapeutic Program

Row | Structure (SMILES) | GI50 [nM]
1 | COc1cccc2c1C(=O)c1c(O)c3c(c(O)c1C2=O)C[C@@](O)(C(=O)CO)C[C@@H]3O[C@H]1C[C@H](N)[C@H](O)[C@H](C)O1 [doxorubicin] | 63
2 | CC(=O)O[C@H]1C(=O)[C@@]2(C)[C@H]([C@H](OC(=O)c3ccccc3)[C@]3(O)C[C@H](OC(=O)[C@H](O)[C@@H](NC(=O)c4ccccc4)c4ccccc4)C(C)=C1C3(C)C)[C@]1(OC(C)=O)CO[C@@H]1C[C@@H]2O [paclitaxel] | 4
3 | NC(=O)NO [hydroxyurea] | 500000
4 | O=c1[nH]cc(F)c(=O)[nH]1 [5-fluorouracil] | 1000
